Laboratory results taken from patent publication US8741868B2, “Pharmaceutical composition including an HIF-2 alpha inhibitor as an active ingredient for preventing or treating arthritis” (Gwangju Institute of Science and Technology, priority 2010, dated 2014).

Key:
[1] = test system: HIF-2α; assay: Expression of HIF-2α in mouse knee joint chondrocytes (RT-PCR, qRT-PCR, western blot); type: cell-based; conditions: for expression of HIF-2α transcripts and proteins: signal pathway inhibitor in chondrocytes; for expression of HIF-2α: mouse knee joint chondrocytes treated with the cytokine
Protocol: In order to induce pathological condition of cartilage degeneration in knee joint chondrocytes of mouse (Charles River, Japan), the cells were treated with interleukin 1β (IL-1β, Calbiochem, USA), IL-17 (R&D Systems, USA), TNF-α (R&D Systems, USA) or IL-21 (R&D Systems, USA), which are known as proinflammatory cytokines. The expression level of HIF-2α was investigated by RT-PCR, qRT-PCR and western blot. The mouse knee joint chondrocytes were isolated from the knee joint of 8-day-old ICR mouse (Charles River, Japan) and cultured in DMEM (Gibco, USA) containing 10% (v/v) fetal bovine serum (Gibco, USA), 50 μg/mL streptomycin (Sigma-Aldrich, USA) and 50 unit/mL penicillin (Sigma-Aldrich, USA). As a result, it was confirmed that whereas the expression of HIF-2α is increased by the proinflammatory cytokines, it is not affected by the anti-inflammatory cytokines IL-4 (R&D Systems, USA), IL-10 (R&D Systems, USA) and […] (R&D Systems, USA) (FIGS. 2a and 2b). IL-1β activates various signal transduction pathways in chondrocytes. Activation of NF-κβ and degradation of IκB protein were confirmed by western blot, and phosphorylation of extracellular signal-regulated kinase (ERK), c-Jun N-terminal kinase (JNK) and p38 MAP kinase from among mitogen-activated protein (MAP) kinase subtypes was confirmed by western blot (FIG. 2c). […] Accordingly, it was confirmed through RT-PCR and western blot (FIG. 2d) and quantification of HIF-2α transcripts by real-time RT-PCR (qRT-PCR) that NFkB and JNK regulate the expression of HIF-2α (FIG. 2e). It was confirmed through immunohistochemical staining that IκB and phosphorylated JNK (pJNK) activating NF-κβ are activated in larger amounts in human degenerative articular cartilage tissue (OA; osteoarthritis) as compared to normal cartilage (Normal).

[2] = test system: nitric oxide (NO) and prostaglandin E2 (PGE2); assay: Production of nitric oxide (NO) and prostaglandin E2 (PGE2) in articular chondrocytes; type: cell-based; conditions: mouse knee joint chondrocytes
Excerpt: (§1) Also, it was confirmed by qRT-PCR that the expression level of these transcripts is increased by Ad-HIF-2α and decreased by siRNA (FIG. 4a). The experimental procedure was the same as with MMP and ADAMT as described above. NOS2 and PTGS2 regulate cartilage degeneration by inducing production of nitric oxide (NO) and prostaglandin E2 (PGE2), respectively. The level of these metabolites was increased by Ad-HIF-2α and decreased by siRNA, as the expression level of PTGS2 and NOS2 transcripts (FIG. 4b).

[3] = test system: MAP kinase; assay: MAP kinase phosphorylation in cytokine-treated chondrocytes; type: cell-based; conditions: cytokine-treated mouse knee articular chondrocytes, HIF-2α-siRNA
Excerpt: According to a preferred embodiment, the siRNA of the present invention has nucleotide sequence included the nucleotide sequence as set forth in SEQ ID NO:1.

[4] = test system: cartilage degeneration-inducing factors MMP (1, 3, 9, 12, 13), ADAMTS4, PTGS2, NOS2; assay: Expression of cartilage degeneration-inducing factors in chondrocytes after HIF-2α siRNA (RT-PCR, western blot, qRT-PCR); type: cell-based, mouse; conditions: for expression of the cartilage degeneration-inducing factors MMP (1, 3, 9, 12, 13), ADAMTS4, PTGS2, NOS2: siRNA 25, 50, 100 nM for 7 hours, then IL-1β medium 1.5 days, vs C-siRNA 100 nM
Protocol: Also, the expression of the cartilage degeneration-inducing factors was investigated after artificially inhibiting expression of HIF-2α using an siRNA specific for HIF-2α. More specifically, mouse knee joint chondrocytes were kept in a culture medium for 72 hours. After infecting with control (C-siRNA, 100 nM) or HIF-2α siRNA (25, 50, 100 nM) for 7 hours, the cells were cultured in a medium containing IL-1B for 1.5 days. The cells were recovered and cartilage degeneration-inducing factors were identified by RT-PCR and western blot. GAPDH and lamin B were used as loading control. Also, mRNA (FIG. 3a) and protein (FIG. 3b) levels of HIF-2α, MMP, ADAMTS, PTGS2 and NOS2 were measured by RT-PCR and western blot and their expression level was quantitated by qRT-PCR (FIGS. 3c and 3d). GAPDH and lamin B were used as loading control. Primers used in PCR are described in Table 1. As a result, it was confirmed that the expression of the cartilage degeneration-inducing factors MMP (1, 3, 9, 12, 13), ADAMTS4, PTGs2, NOS2, etc. is decreased as the expression of HIF-2α is inhibited.
as §1

Molecule	expression of HIF-2α [1]	further results
CC(C)(C)c1ccc(S(=O)(=O)/C=C/C#N)cc1 [BAY 11-7085, reference compound]		expression of HIF-2α transcripts and proteins [1]: decreased remarkably
COc1cccc(-c2cc(=O)c3ccccc3o2)c1N [PD98059, reference compound]		expression of HIF-2α transcripts and proteins [1]: inhibition effect was slightly weak
C[S+]([O-])c1ccc(-c2nc(-c3ccncc3)c(-c3ccc(F)cc3)[nH]2)cc1 (stereo not shown) [SB203580, reference compound]		expression of HIF-2α transcripts and proteins [1]: no effect
HIF-2α siRNA: siRNA specific for HIF-2α; mouse sense 5′-AGUUGUUGUAGACUUUCACCUGGC-3′, antisense 5′-GGCCAGGUGAAAGUCUACAACAAC-3′ (SEQ ID NO 4, 5) (listed as RNA, chemistry not given here)		level of metabolites nitric oxide (NO) and prostaglandin E2 (PGE2) [2]: decreased; MAP kinase phosphorylation [3]: significantly reduced; expression level of PTGS2 and NOS2 transcripts (qRT-PCR) ([4]; mouse knee joint chondrocytes, siRNA): decreased; expression of the cartilage degeneration-inducing factors MMP (1, 3, 9, 12, 13), ADAMTS4, PTGS2, NOS2 [4]: decreased; expression of the cartilage degeneration-inducing factors MMP (1, 3, 9, 12, 13), ADAMTS4, PTGS2, NOS2 ([4]; listed as HIF-2α-siRNA): markedly decreased
IL-17: proinflammatory cytokine (R&D Systems, USA)	increased	
IL-18: proinflammatory cytokine named in the legend of FIG. 2	increased	
IL-21: proinflammatory cytokine (R&D Systems, USA)	increased	
TNF-α	increased	
interleukin 1β [IL-1β]	increased	
IL-12: anti-inflammatory cytokine (R&D Systems, USA) (protein, UniProt P29459 23-219; P29460 23-328, looked up) Interleukin-12 subunit alpha: RNLPVATPDPGMFPCLHHSQNLLRAVSNMLQKARQTLEFYPCTSEEIDHEDITKDKTSTVEACLPLELTKNESCLNSRETSFITNGSCLASRKTSFMMALCLSSIYEDLKMYQVEFKTMNAKLLMDPKRQIFLDQNMLAVIDELMQALNFNSETVPQKSSLEEPDFYKTKIKLCILLHAFRIRAVTIDRVMSYLNAS Interleukin-12 subunit beta: IWELKKDVYVVELDWYPDAPGEMVVLTCDTPEEDGITWTLDQSSEVLGSGKTLTIQVKEFGDAGQYTCHKGGEVLSHSLLLLHKKEDGIWSTDILKDQKEPKNKTFLRCEAKNYSGRFTCWWLTTISTDLTFSVKSSRGSSDPQGVTCGAATLSAERVRGDNKEYEYSVECQEDSACPAAEESLPIEVMVDAVHKLKYENYTSSFFIRDIIKPDPPKNLQLKPLKNSRQVEVSWEYPDTWSTPHSYFSLTFCVQVQGKSKREKKDRVFTDKTSATVICRKNASISVRAQDRYYSSSWSEWASVPCS	not affected	
IL-4: anti-inflammatory cytokine (R&D Systems, USA) (protein, UniProt P05112 25-153, looked up) Interleukin-4: HKCDITLQEIIKTLNSLTEQKTLCTELTVTDIFAASKNTTEKETFCRAATVLRQFYSHHEKDTRCLGATAQQFHRHKQLIRFLKRLDRNLWGLAGLNSCPVKEANQSTLENFLERLKTIMREKYSKCSS	not affected	
IL-10: anti-inflammatory cytokine (R&D Systems, USA) (protein, UniProt P22301 19-178, looked up) Interleukin-10: SPGQGTQSENSCTHFPGNLPNMLRDLRDAFSRVKTFFQMKDQLDNLLLKESLLEDFKGYLGCQALSEMIQFYLEEVMPQAENQDPDIKAHVNSLGENLKTLRLRLRRCHRFLPCENKSKAVEQVKNAFNKLQEKGIYKAMSEFDIFINYIEAYMTMKIRN	not affected	
